Tests used:
[1] = Relative thermodynamic stability and interconversion of polymorphs; format: physicochemical
[2] = Solid-form stability of Form 1 under humidity, pressure and grinding stress; format: physicochemical

Compound: [2H]C([2H])([2H])[C@H](O)C([2H])([2H])CCCn1c(=O)c2c(ncn2C)n(C)c1=O [Form 2, (S)-1-(4,4,6,6,6-pentadeutero-5-hydroxyhexyl)-3,7-dimethyl-1H-purine-2,6(3H,7H)-dione]
- form conversion ([1]; upon air drying, storage and/or slurrying at room temperature): convert to Form 1

Compound: [2H]C([2H])([2H])[C@H](O)C([2H])([2H])CCCn1c(=O)c2c(ncn2C)n(C)c1=O [Form 1, (S)-1-(4,4,6,6,6-pentadeutero-5-hydroxyhexyl)-3,7-dimethyl-1H-purine-2,6(3H,7H)-dione]
- form stability / form change ([2]; exposed to 0.35 GPa pressure): stable and did not undergo a form change
- form stability / form change ([2]; exposed to 97% relative humidity for up to 12 days): stable and did not undergo a form change
- form stability / form change ([2]; ground at ambient temperature (30Hz for 2hrs)): stable and did not undergo a form change
- form stability / form change ([2]; ground at −196° C. (25Hz for 0.5hrs)): stable and did not undergo a form change
- relative thermodynamic stability ([1]; compared with the other polymorphs): more thermodynamically stable than any of Forms 2, 3 and 4
